Source: ChEMBL document CHEMBL2321685, “Lead optimization of isocytosine-derived xanthine oxidase inhibitors” (Bioorg Med Chem Lett, 2013)
Active and inactive are the calls of the source. The calls are words filed in the database; no cut-off is given here.

Key:
Rattus norvegicus [1] = test: AUClast in Sprague-Dawley rat assessed as Methyl 4-((4-(2-amino-6-hydroxypyrimidin-4-yl)-2-cyanophenoxy)methyl)cyclohexanecarboxylate level at 10 mg/kg, po; type: ADME, organism-based, Plasma; design: time 0 - last, dose 10 mg/kg, route oral; details: in vivo
Rattus norvegicus [2] = test: Cmax in Sprague-Dawley rat assessed as Methyl 4-((4-(2-amino-6-hydroxypyrimidin-4-yl)-2-cyanophenoxy)methyl)cyclohexanecarboxylate level at 10 mg/kg, po; type: ADME, organism-based; design: dose 10 mg/kg, route oral; details: in vivo
Rattus norvegicus [3] = test: (§1) Cmax in Sprague-Dawley rat at 10 mg/kg, po; type: ADME, organism-based; design: dose 10 mg/kg, route oral; details: in vivo, BLD = below limit of detection
[4] = (§2) Metabolic stability in rat liver microsomes assessed as compound remaining after 60 mins; type: ADME, Microsome; details: liver microsomes, read-out: Stability
[5] = target: Xanthine dehydrogenase/oxidase (Bos taurus, UniProt P80457)
Description: Inhibition of bovine xanthine oxidase-mediated uric acid production after 30 mins by spectrophotometric analysis

Rattus norvegicus [6] = test: Antihyperuricemic activity in rat assessed as reduction in potassium oxonate-induced serum uric acid level at 50 mg/kg, po administered at 1 hr prior to potassium oxonate-challenge measured up to 5 hrs relative to control; type: functional, organism-based; design: dose 50 mg/kg
Rattus norvegicus [7] = test: Elimination half life in Sprague-Dawley rat assessed as Methyl 4-((4-(2-amino-6-hydroxypyrimidin-4-yl)-2-cyanophenoxy)methyl)cyclohexanecarboxylate level at 10 mg/kg, po; type: ADME, organism-based; design: dose 10 mg/kg, route oral; details: in vivo
[8] = (§3) Metabolic stability in rat plasma assessed as compound remaining after 60 mins; type: ADME, cell-free; details: read-out: Stability
[9] = (§4) Metabolic stability in rat liver S9 fraction assessed as compound remaining after 60 mins; type: ADME, subcellular; details: liver S9 fraction, read-out: Stability
Rattus norvegicus [10] = test: Tmax in Sprague-Dawley rat assessed as Methyl 4-((4-(2-amino-6-hydroxypyrimidin-4-yl)-2-cyanophenoxy)methyl)cyclohexanecarboxylate level at 10 mg/kg, po; type: ADME, organism-based; design: dose 10 mg/kg, route oral; details: in vivo
[11] = Oral bioavailability in Sprague-Dawley rat at 10 mg/kg; type: ADME, organism-based; details: in vivo
[12] = Elimination half life in Sprague-Dawley rat at 2 mg/kg, iv; type: ADME, organism-based; design: dose 2 mg/kg, route intravenous; details: in vivo, read-out: beta t1/2 (converted)
[13] = Clearance in Sprague-Dawley rat at 2 mg/kg, iv; type: ADME, organism-based; design: dose 2 mg/kg, route intravenous; details: in vivo
Rattus norvegicus [14] = test: Antihyperuricemic activity in rat assessed as reduction in potassium oxonate-induced serum uric acid level at 10 mg/kg, po administered at 1 hr prior to potassium oxonate-challenge measured up to 5 hrs relative to allopurinol; type: functional; design: scale not given: the % may be the effect or the level left
[15] = Tmax in Sprague-Dawley rat at 2 mg/kg, iv; type: ADME, organism-based; design: dose 2 mg/kg, route intravenous; details: in vivo
[16] = AUClast in Sprague-Dawley rat at 10 mg/kg, po; type: ADME, organism-based; design: time 0 - last, dose 10 mg/kg, route oral; details: plasma
[17] = Elimination half life in Sprague-Dawley rat at 10 mg/kg, po; type: ADME, organism-based; design: dose 10 mg/kg, route oral; details: in vivo, read-out: beta t1/2 (converted)
[18] = Tmax in Sprague-Dawley rat at 10 mg/kg, po; type: ADME, organism-based; design: dose 10 mg/kg, route oral; details: in vivo
[19] = as §1; type: ADME, organism-based; design: dose 10 mg/kg, route oral; details: Sprague-Dawley, in vivo
[20] = Volume of distribution in Sprague-Dawley rat at 2 mg/kg, iv; type: ADME, organism-based; design: dose 2 mg/kg, route intravenous; details: in vivo
Rattus norvegicus [21] = test: Antihyperuricemic activity in po dosed rat assessed as reduction in potassium oxonate-induced serum uric acid level administered at 1 hr prior to potassium oxonate-challenge measured up to 5 hrs; type: functional
[22] = AUClast in Sprague-Dawley rat at 2 mg/kg, iv; type: ADME, organism-based; design: time 0 - last, dose 2 mg/kg, route intravenous; details: plasma
Rattus norvegicus [23] = test: Antihyperuricemic activity in rat assessed as reduction in potassium oxonate-induced serum uric acid level at 30 mg/kg, po administered at 1 hr prior to potassium oxonate-challenge measured up to 5 hrs relative to allopurinol; type: functional; design: scale not given: the % may be the effect or the level left
[24] = Cmax in Sprague-Dawley rat at 2 mg/kg, iv; type: ADME, organism-based; design: dose 2 mg/kg, route intravenous; details: in vivo
[25] = Initial plasma concentration in Sprague-Dawley rat at 2 mg/kg, iv; type: ADME, organism-based; design: dose 2 mg/kg, route intravenous
Liver microsomes = test: as §2; type: ADME, Microsome; details: microsomes, 1 h
Plasma = test: as §3; type: ADME, cell-free; details: 1 h
Liver = test: as §4; type: ADME, subcellular; details: s9, 1 h
Rattus norvegicus [26] = test: Cmax in Sprague-Dawley rat assessed as 2-(4-(2-amino-6-hydroxypyrimidin-4-yl)-2-cyanophenoxy)-2-methylpropanoic acid level at 10 mg/kg, po; type: ADME, organism-based; design: dose 10 mg/kg, route oral; details: in vivo
Rattus norvegicus [27] = test: Elimination half life in Sprague-Dawley rat assessed as 2-(4-(2-amino-6-hydroxypyrimidin-4-yl)-2-cyanophenoxy)-2-methylpropanoic acid level at 10 mg/kg, po; type: ADME, organism-based; design: dose 10 mg/kg, route oral; details: in vivo
Rattus norvegicus [28] = test: Tmax in Sprague-Dawley rat assessed as 2-(4-(2-amino-6-hydroxypyrimidin-4-yl)-2-cyanophenoxy)-2-methylpropanoic acid level at 10 mg/kg, po; type: ADME, organism-based; design: dose 10 mg/kg, route oral; details: in vivo
Rattus norvegicus [29] = test: AUClast in Sprague-Dawley rat assessed as 2-(4-(2-amino-6-hydroxypyrimidin-4-yl)-2-cyanophenoxy)-2-methylpropanoic acid level at 10 mg/kg, po; type: ADME, organism-based, Plasma; design: time 0 - last, dose 10 mg/kg, route oral; details: in vivo

Chain of Xanthine dehydrogenase/oxidase (P80457 whole entry): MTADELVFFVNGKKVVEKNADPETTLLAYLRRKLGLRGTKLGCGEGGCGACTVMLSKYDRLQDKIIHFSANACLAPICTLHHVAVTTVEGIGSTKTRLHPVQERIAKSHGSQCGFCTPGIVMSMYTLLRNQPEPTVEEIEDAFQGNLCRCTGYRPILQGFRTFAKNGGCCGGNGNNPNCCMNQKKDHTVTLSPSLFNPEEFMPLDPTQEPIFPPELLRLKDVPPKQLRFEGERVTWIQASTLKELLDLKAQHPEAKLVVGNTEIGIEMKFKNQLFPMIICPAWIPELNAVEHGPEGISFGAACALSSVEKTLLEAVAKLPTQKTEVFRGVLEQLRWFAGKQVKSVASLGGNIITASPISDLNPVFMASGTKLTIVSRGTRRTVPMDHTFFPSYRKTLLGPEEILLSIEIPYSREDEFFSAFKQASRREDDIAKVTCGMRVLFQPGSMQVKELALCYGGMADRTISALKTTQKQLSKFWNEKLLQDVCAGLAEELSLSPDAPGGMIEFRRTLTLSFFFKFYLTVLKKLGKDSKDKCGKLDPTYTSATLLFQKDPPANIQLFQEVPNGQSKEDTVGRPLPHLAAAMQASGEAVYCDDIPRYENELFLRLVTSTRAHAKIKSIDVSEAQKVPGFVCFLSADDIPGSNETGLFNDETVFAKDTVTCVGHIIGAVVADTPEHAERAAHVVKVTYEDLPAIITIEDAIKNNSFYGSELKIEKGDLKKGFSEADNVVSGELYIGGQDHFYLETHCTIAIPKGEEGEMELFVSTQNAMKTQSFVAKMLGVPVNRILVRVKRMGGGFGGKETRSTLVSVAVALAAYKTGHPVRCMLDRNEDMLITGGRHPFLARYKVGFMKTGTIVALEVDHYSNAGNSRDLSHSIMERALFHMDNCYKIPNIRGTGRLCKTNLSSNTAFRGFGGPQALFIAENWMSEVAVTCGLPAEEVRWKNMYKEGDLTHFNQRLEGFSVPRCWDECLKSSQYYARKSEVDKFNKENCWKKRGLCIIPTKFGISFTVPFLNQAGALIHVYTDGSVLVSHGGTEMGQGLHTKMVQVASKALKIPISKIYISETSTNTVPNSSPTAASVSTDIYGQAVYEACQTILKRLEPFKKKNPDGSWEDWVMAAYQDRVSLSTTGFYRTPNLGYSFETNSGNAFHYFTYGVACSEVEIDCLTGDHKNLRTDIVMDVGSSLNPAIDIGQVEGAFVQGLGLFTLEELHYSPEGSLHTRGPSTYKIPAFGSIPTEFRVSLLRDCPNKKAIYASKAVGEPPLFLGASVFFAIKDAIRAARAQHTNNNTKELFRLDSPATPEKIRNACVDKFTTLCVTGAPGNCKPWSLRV

COC(=O)C1CCC(COc2ccc(-c3cc(O)nc(N)n3)cc2C#N)CC1 (centres undefined)
AUClast (Rattus norvegicus [1]): 795.24 ng·h/mL | Cmax (Rattus norvegicus [2]): 340 nM | Cmax (Rattus norvegicus [3]): BLD | remaining at 1 h [4]: 0% | IC50 [5]: 19 nM | Activity (Rattus norvegicus [6]): Active | beta t1/2 (Rattus norvegicus [7]): 3.9 h | remaining at 1 h [8]: 0% | remaining at 1 h [9]: 0% | Tmax (Rattus norvegicus [10]): 2 h

CC(C)C(C)Oc1ccc(-c2cc(O)nc(N)n2)cc1C#N (centres undefined)
IC50 [5]: 13 nM

CC(C)COc1ccc(-c2ccnc(N)n2)cc1C#N
bioavailability [11]: 13.4% | half-life [12]: 5.96 h | clearance [13]: 10.7 mL/min/kg | Activity (Rattus norvegicus [14]): 49% | Tmax [15]: 1.8 min | AUC(0-t) [16]: 2000 ng·h/mL | half-life [17]: 1.35 h | Tmax [18]: 0.75 h | Cmax [19]: 4190 nM | remaining at 1 h [4]: 21.2% | Vd [20]: 5.5 L/kg | IC50 [5]: 80 nM | Activity (Rattus norvegicus [21]): Dose-dependent effect | ED50 (Rattus norvegicus [21]): 10 mg/kg | AUC(0-t) [22]: 2990 ng·h/mL | Activity (Rattus norvegicus [23]): 70% | Cmax [24]: 9940 nM | remaining at 1 h [8]: 88.4% | remaining at 1 h [9]: 71.3% | C0 [25]: 3720 ng/mL

N#Cc1cc(-c2cc(=O)[nH]c(N)n2)ccc1OCC1CCC1
IC50 [5]: 18 nM

CCC(CC)COc1ccc(-c2cc(=O)[nH]c(N)n2)cc1C#N
IC50 [5]: 10 nM

N#Cc1cc(-c2cc(O)nc(N)n2)ccc1OCc1ccccc1C(F)(F)F
IC50 [5]: 9 nM

CC(C)COc1ccc(-c2cc(=O)[nH]cn2)cc1C#N
AUC(0-t) [16]: 416 ng·h/mL | half-life [17]: 9.88 h | Tmax [18]: 0.25 h | Cmax [19]: 1150 nM | remaining at 1 h [4]: 49.6% | IC50 [5]: 60 nM | remaining at 1 h [8]: 90.5% | remaining at 1 h [9]: 13.5%

CC(C)COc1ccc(-c2cc(O)ncn2)cc1C#N
Activity (Rattus norvegicus [6]): Active

N#Cc1cc(-c2ccnc(N)n2)ccc1OCc1ccc(F)cc1C(F)(F)F
IC50 [5]: 80 nM

CC(C)(C)COc1ccc(-c2cc(=O)[nH]c(N)n2)cc1C#N
AUC(0-t) [16]: 297 ng·h/mL | half-life [17]: 10.7 h | Tmax [18]: 0.5 h | Cmax [19]: 160 nM | IC50 [5]: 4 nM | remaining at 1 h [8]: 99.7%

COC(=O)c1ccc(COc2ccc(-c3cc(O)nc(N)n3)cc2C#N)cc1
IC50 [5]: 9 nM

N#Cc1cc(-c2cc(=O)[nH]c(N)n2)ccc1OCc1ccc(C(=O)O)cc1
IC50 [5]: 5 nM

COc1ccc(-c2cc(O)nc(N)n2)cc1C#N
IC50 [5]: 160 nM

N#Cc1cc(-c2cc(=O)[nH]c(N)n2)ccc1OCc1ccccc1
IC50 [5]: 17 nM

N#Cc1cc(-c2ccnc(N)n2)ccc1OCc1ccccc1C(F)(F)F
IC50 [5]: 60 nM

N#Cc1cc(-c2ccnc(N)n2)ccc1OCc1ccc(F)cc1
IC50 [5]: 150 nM

N#Cc1cc(-c2cc(=O)[nH]c(N)n2)ccc1OCc1ccc(F)cc1C(F)(F)F
IC50 [5]: 11 nM

N#Cc1cc(-c2cc(=O)[nH]c(N)n2)ccc1OCC1CCC(C(=O)O)CC1 (centres undefined)
AUC(0-t) [16]: 119 ng·h/mL | Tmax [18]: 4 h | Cmax [19]: 50 nM | remaining at 1 h [4]: 90.6% | IC50 [5]: 9 nM | remaining at 1 h [8]: 106% | remaining at 1 h [9]: 101%

N#Cc1cc(-c2cc(O)nc(N)n2)ccc1OCc1ccc(F)cc1
IC50 [5]: 7 nM

CC(C)(COc1ccc(-c2cc(O)nc(N)n2)cc1C#N)C(=O)O
AUC(0-t) [16]: 19500 ng·h/mL | half-life [17]: 4 h | Cmax [19]: 6600 nM | remaining at 1 h [4]: 90.2% | IC50 [5]: 5 nM | remaining at 1 h [8]: 33.9% | remaining at 1 h [9]: 98.9%

Cc1nc(O)cc(-c2ccc(OCC(C)C)c(C#N)c2)n1
IC50 [5]: > 30000 nM

CC(C)COc1ccc(-c2cc(=O)[nH]c(N)n2)cc1C#N
bioavailability [11]: 8.6% | remaining at 1 h [4]: 91.5% | remaining at 1 h [8]: 96% | remaining at 1 h [9]: 65.6% | C0 [25]: 1360 ng/mL

COC(=O)C1CCC(COc2ccc(-c3ccnc(N)n3)cc2C#N)CC1 (centres undefined)
remaining at 1 h [4]: 0% | IC50 [5]: 10 nM | Activity (Rattus norvegicus [21]): Active | remaining at 1 h [8]: 28% | remaining at 1 h [9]: 11%

N#Cc1cc(-c2ccnc(N)n2)ccc1OCC1CCCCC1
IC50 [5]: 50 nM

N#Cc1cc(-c2ccnc(N)n2)ccc1OCC1CCC1
IC50 [5]: 400 nM

CC(C)COc1ccc(-c2cc(C(=O)O)nc(N)n2)cc1C#N
IC50 [5]: 400 nM

N#Cc1cc(-c2cc(O)nc(N)n2)ccc1OCC1CCCCC1
AUC(0-t) [16]: 109 ng·h/mL | half-life [17]: 18 h | Tmax [18]: 1 h | Cmax [19]: 40 nM | remaining at 1 h [4]: 97.3% | IC50 [5]: 10 nM | remaining at 1 h [8]: 94% | remaining at 1 h [9]: 86.8%

CC(C)(C)c1ccc(COc2ccc(-c3cc(=O)[nH]c(N)n3)cc2C#N)cc1
IC50 [5]: 19 nM

N#Cc1cc(-c2ccnc(N)n2)ccc1OCC1CCC(C(=O)O)CC1 (centres undefined)
Stability (Liver microsomes): Stable | IC50 [5]: 10 nM | Activity (Rattus norvegicus [21]): Active | Stability (Plasma): Stable | Stability (Liver): Stable

CC(C)COc1ccc(-c2cc(C(N)=O)nc(N)n2)cc1C#N
IC50 [5]: 3900 nM

COC(=O)C(C)(C)COc1ccc(-c2cc(=O)[nH]c(N)n2)cc1C#N
Cmax (Rattus norvegicus [26]): 8460 nM | AUC(0-t) [16]: 44.8 ng·h/mL | beta t1/2 (Rattus norvegicus [27]): 11.6 h | half-life [17]: 2.04 h | Tmax [18]: 0.75 h | Cmax [19]: 40 nM | remaining at 1 h [4]: 95.9% | IC50 [5]: 15 nM | remaining at 1 h [8]: 30.2% | Tmax (Rattus norvegicus [28]): 4 h | remaining at 1 h [9]: 93.6% | AUClast (Rattus norvegicus [29]): 22699.83 ng·h/mL

COC(=O)C(C)(C)COc1ccc(-c2cc(O)nc(N)n2)cc1C#N
Activity (Rattus norvegicus [6]): Active
